Measurements: patent US12655171B2, “Compounds for activating invariant natural killer T-cells and methods of use in eliminating inflammatory senescent cells” (Deciduous Therapeutics, Inc., priority 2021, dated 2026)

The molecules below were run on serum IFNγ (assay: In vivo serum IFNγ (ELISA) in C57BL/6J mice). Details: 2 μg I.P.; twenty hours post-injection; FIG. 4A.
Protocol: In order to determine the expansion induced by the molecules described herein, molecules were injected into C57BL/6J mice. Serum IFNγ levels and the expansion of iNKT cells within splenocytes was measured 4 days post-IP injection.
Eight weeks old C57BL/6J mice were injected (I.P.) with 2 μg of α-GalCer or DCD molecules. Molecules were either dissolved in DMSO at a 5 mg/mL stock solution, or formulated into liposomes through thin-film rehydration, then extrusion through 200 nm filters. Liposome-based formulations were constructed using soy phosphatidylcholine, cholesterol, and DCD or α-GalCer in a 2:1:0.15 ratio. Twenty hours post-injection, blood was collected from the tail to measure the level of serum IFNγ using an ELISA kit from Biolegend. Four days post-injection, the mice were sacrificed and the spleenocytes were isolated. The percentage of iNKT cells within the spleens was measured using flow cytometry, selecting for live cells and mouse CD1d-α-GalCer tetramer+ cells.

Row | Structure (SMILES) | average serum IFNγ compared to α-GalCer
1 | CCCCCCCCCCCCCCCCCC[Si](C)(C)CCCCCCC(=O)N[C@@H](COC1OC(CO)C(O)C(O)C1O)[C@H](O)[C@H](O)CCCCCCCCCCCCCC (stereo partly drawn) [DCD-152] | higher than the average serum IFNγ of C57BL/6J mice treated with α-GalCer

These molecules were tested on human iTCR (assay: In vitro activation of human iTCR through Jurkat reporter cell line (JiNKT, GFP under NFkB promoter) with drug-loaded BWSTIM cells). Details: BWSTIM loaded 4 hours, co-culture with JiNKT 18 to 24 hours; FIG. 1.
Format: cell-based
Protocol: In order to determine the human iTCR activation potential induced by the compounds described herein, a jurkat cell line (JiNKT) was transfected with the human iTCR, and GFP under the NFkB promoter (cell line licensed from the Medical University of Vienna). A BWS147 cell line (BWSTIM) was also transfected with CD80 and CD1d to act as the antigen-presenting cell.
(§1) DCD molecules or α-GalCer were both dissolved in DMSO at a 5 mg/mL stock solution. BWSTIM cells were loaded with DCD molecules or α-GalCer at varying concentrations for 4 hours at 37° C. at a concentration of 20 k cells/well in 200 μL of media in a u-bottom 96 well dish. BWSTIM cells were washed 2× with media, then incubated with JiNKT cells at a concentration of 80 k cells/well in a u-bottom 96 well dish. Cells were co-cultured for 18 to 24 hours. The percentage of cells expressing high levels of GFP was measured through flow cytometry (after gating out the mCD45+ BWSTIM cells).
A jurkat cell line (JiNKT) was transfected with the human iTCR, and GFP under the NFkB promoter. A BWS147 cell line (BWSTIM) was also transfected with CD80 and CD1d to act as the antigen-presenting cell. A mouse iNKT hybridoma cell line (DN3.2) was also used as the iNKT. […]
as §1, with “GVK” for “DCD”, “compounds” for “DCD molecules or α-GalCer at varying concentrations”, “for” for “for 18 to”, “cytometry. 1 μg/mL of molecule GVK1a, GVK1b, GVK1c, or GVK1f was incubated with BWSTIM+JiNKT, and compared to α-GalCer.” for “cytometry (after gating out the mCD45+ BWSTIM cells).”

Row | Structure (SMILES) | EC50 of the dose response based on percentage GFP+ cells, compared to α-GalCer
2 | CCCCCCCCCCCCCC[C@@H](O)[C@@H](O)[C@H](COC1OC(CO)C(O)C(O)C1O)NC(=O)CCCCCCCCCCCC12C3C4C5C3C1C5C42 (stereo partly drawn) [DCD-103] | lower EC50s compared to α-GalCer
3 | CCCCCCCCCCCCCC[C@@H](O)[C@@H](O)[C@H](COC1OC(CO)C(O)C(O)C1O)n1cc(CCCCCCN(CCCCCCC)CCCCCCC)nn1 (stereo partly drawn) [DCD-104] | lower EC50s compared to α-GalCer
4 | CCCCCCCCCCCCCC[C@@H](O)[C@@H](O)[C@H](COC1OC(CO)C(O)C(O)C1O)NC(=O)CCCCCCCCCCCC12CC(F)(C1)C2 (stereo partly drawn) [DCD-113] | lower EC50s compared to α-GalCer
5 | CCCCCCCCCCCCCC[C@@H](O)[C@@H](O)[C@H](COC1OC(CO)C(O)C(O)C1O)NC(=O)CCCCCCCCCCC12C3C4C5C3C1C5C42 (stereo partly drawn) [DCD-114] | lower EC50s compared to α-GalCer
6 | CCCCCCCCCCCCCC[C@@H](O)[C@@H](O)[C@H](COC1OC(CO)C(O)C(O)C1O)NC(=O)CCCCCCCCCCC1COC1 (stereo partly drawn) [DCD-118] | lower EC50s compared to α-GalCer
7 | CCCCCCCCCCCCCC[C@@H](O)[C@@H](O)[C@H](COC1OC(CO)C(O)C(O)C1O)NC(=O)CCCCCCCCCCC1(C)COC1 (stereo partly drawn) [DCD-119] | lower EC50s compared to α-GalCer
8 | CCCCCCCCCCCCCC[C@@H](O)[C@@H](O)[C@H](COC1OC(CO)C(O)C(O)C1O)NC(=O)CCCCCCCCCCC1CCOC1 (stereo partly drawn) [DCD-121] | lower EC50s compared to α-GalCer
9 | CCCCCCCCCCCCCC[C@@H](O)[C@@H](O)[C@H](COC1OC(CO)C(O)C(O)C1O)NC(=O)CCCCCCCCCCC1CCOCC1 (stereo partly drawn) [DCD-122] | lower EC50s compared to α-GalCer
10 | CCCCCCCCCCCCCC[C@@H](O)[C@@H](O)[C@H](COC1OC(CO)C(O)C(O)C1O)NC(=O)CCCCCCCCCCC1CN(C(=O)OC(C)(C)C)C1 (stereo partly drawn) [DCD-125] | lower EC50s compared to α-GalCer
11 | CCCCCCCCCCCCCC[C@@H](O)[C@@H](O)[C@H](COC1OC(CO)C(O)C(O)C1O)NC(=O)CCCCCCCCCCC1CCS(=O)(=O)CC1 (stereo partly drawn) [DCD-127] | lower EC50s compared to α-GalCer
12 | CCCCCCCCCCCCCC[C@@H](O)[C@@H](O)[C@H](COC1OC(CO)C(O)C(O)C1O)NC(=O)CCCCCCCCCCC1CCN(C(=O)OC(C)(C)C)C1 (stereo partly drawn) [DCD-128] | lower EC50s compared to α-GalCer
13 | CCCCCCCCCCCCCC[C@@H](O)[C@@H](O)[C@H](COC1OC(CO)C(O)C(O)C1O)NC(=O)CCCCCCCCCCN1CCOCC1.Cl (stereo partly drawn) [DCD-130] | lower EC50s compared to α-GalCer
14 | CCCCCCCCCCCCCC[C@@H](O)[C@@H](O)[C@H](COC1OC(CO)C(O)C(O)C1O)NC(=O)CCCCCCCCCCN1CCSCC1.Cl (stereo partly drawn) [DCD-133] | lower EC50s compared to α-GalCer
15 | CCCCCCCCCCCCCC[C@@H](O)[C@@H](O)[C@H](COC1OC(CO)C(O)C(O)C1O)NC(=O)CCCCCCCCCCN1CCS(=O)(=O)CC1 (stereo partly drawn) [DCD-136] | lower EC50s compared to α-GalCer
16 | CCCCCCCCCCCCCC[C@@H](O)[C@@H](O)[C@H](COC1OC(CO)C(O)C(O)C1O)NC(=O)CCCCCCCCCCS(=O)(=O)C(C)C (stereo partly drawn) [DCD-137] | lower EC50s compared to α-GalCer
17 | CCCCCCCCCCCCCC[C@@H](O)[C@@H](O)[C@H](COC1OC(CO)C(O)C(O)C1O)NC(=O)CCCCCCCCCOC1CCS(=O)(=O)CC1 (stereo partly drawn) [DCD-138] | lower EC50s compared to α-GalCer
18 | CCCCCCCCCCCCCC[C@@H](O)[C@@H](O)[C@H](COC1OC(CO)C(O)C(O)C1O)NC(=O)CCCCCCCCCOC1CCOCC1 (stereo partly drawn) [DCD-139] | lower EC50s compared to α-GalCer
19 | CCCCCCCCCCCCCC[C@@H](O)[C@@H](O)[C@H](COC1OC(CO)C(O)C(O)C1O)NC(=O)CCCCCCCOCCC1CCOCC1 (stereo partly drawn) [DCD-140] | lower EC50s compared to α-GalCer
20 | CCCCCCCCCCCCCC[C@@H](O)[C@@H](O)[C@H](COC1OC(CO)C(O)C(O)C1O)NC(=O)CCCCCCCCOCC1CCOCC1 (stereo partly drawn) [DCD-141] | lower EC50s compared to α-GalCer
21 | CCCCCCCCCCCCCC[C@@H](O)[C@@H](O)[C@H](COC1OC(CO)C(O)C(O)C1O)NC(=O)CCCCCCOCCCC1CCOCC1 (stereo partly drawn) [DCD-143] | lower EC50s compared to α-GalCer
22 | CCCCCCCCCCCCCC[C@@H](O)[C@@H](O)[C@H](COC1OC(CO)C(O)C(O)C1O)NC(=O)CCCCCOCCCCC1CCOCC1 (stereo partly drawn) [DCD-144] | lower EC50s compared to α-GalCer
23 | CCCCCCCCCCCCCC[C@@H](O)[C@@H](O)[C@H](COC1OC(CO)C(O)C(O)C1O)NC(=O)CCCCCCCCCCCCCCCCCCCCCCC12CC(F)(C1)C2 (stereo partly drawn) [DCD-148] | lower EC50s compared to α-GalCer
24 | CCCCCCCCCCCCCC[C@@H](O)[C@@H](O)[C@H](COC1OC(CO)C(O)C(O)C1O)NC(=O)CCCCCCCCCCCCCCCCCCCCCCC1COC1 (stereo partly drawn) [DCD-149] | lower EC50s compared to α-GalCer
25 | CCCCCCCCCCCCCC[C@@H](O)[C@@H](O)[C@H](COC1OC(CO)C(O)C(O)C1O)NC(=O)CCCCCCCCCCCCCCCCCCCCCC1COC1 (stereo partly drawn) [DCD-150] | lower EC50s compared to α-GalCer
26 | CCCCCCCCCCCCCC[C@@H](O)[C@@H](O)[C@H](COC1OC(CO)C(O)C(O)C1O)NC(=O)CCCCCCCCCCCCCCCCCCCCCC12CC(F)(C1)C2 (stereo partly drawn) [DCD-151] | lower EC50s compared to α-GalCer

Same assay, conditions: ranking among tested compounds, at the lowest concentration

Row | Structure (SMILES) | % GFP+
27 | CCCCCCCCCCCCCC[C@@H](O)[C@@H](O)[C@H](COC1OC(CO)C(O)C(O)C1O)NC(=O)CCCCCCCCCCC1CCS(=O)(=O)CC1 (stereo partly drawn) [DCD-127] | highest % GFP+ at the lowest concentration

What follows are molecules tested on primary human iNKT cells (assay: Cytokine secretion of primary human iNKT cells co-cultured with drug-loaded BWSTIM cells). Details: BWSTIM loaded with 10 μg/mL; FIG. 3A.
Format: cell-based
Protocol: In order to determine the activation profile induced by the compounds described herein, primary human iNKT cells were co-cultured with drug-loaded BWSTIM cells.
Day 0: PBMCs were isolated from human blood using the STEMCELL TECHNOLOGIES™ SepMate™ PBMC isolation system. iNKT cells were then selected using the Miltenyi NKT magnetic cell separation kit.
Day 2: DCD molecules or α-GalCer were both dissolved in DMSO at a 5 mg/mL stock solution. BWSTIM cells were fixed with mitomycin C, then loaded with 10 μg/mL of DCD molecules or α-GalCer for 4 hours at 37° C. at a concentration of 20 k cells/well in 200 μL of media in a u-bottom 96 well dish. Cells were co-cultured with 80 k 6B11+ selected primary human iNKT cells.
D4: Media was collected. Cytokines were measured using the Satorious 4Plex kit on the iQue3 cytometer.
GVK molecules or α-GalCer were both dissolved in DMSO at a 5 mg/mL stock solution. BWSTIM cells were loaded with compounds for 4 hours at 37° C. at a concentration of 20 k cells/well in 200 μL of media in a u-bottom 96 well dish. Cells were co-cultured with 100 k 6B11+ selected primary human iNKT cells. Media was collected 2 days later. Cytokines were measured using the Satorious 4Plex kit on the iQue3 cytometer.

Row | Structure (SMILES) | IFNγ secretion compared to the no-compound control
28 | CCCCCCCCCCCCCC[C@@H](O)[C@@H](O)[C@H](COC1OC(CO)C(O)C(O)C1O)n1cc(CCCCCCN(CCCCCCC)CCCCCCC)nn1 (stereo partly drawn) [DCD-104] | significantly higher levels

Same assay, conditions: BWSTIM loaded with 10 μg/mL; FIG. 3B

Row | Structure (SMILES) | IL6 secretion compared to the no-compound control
29 | CCCCCCCCCCCCCC[C@@H](O)[C@@H](O)[C@H](COC1OC(CO)C(O)C(O)C1O)n1cc(CCCCCCN(CCCCCCC)CCCCCCC)nn1 (stereo partly drawn) [DCD-104] | significantly higher levels

Same assay, conditions: BWSTIM loaded with 10 μg/mL; FIG. 3C

Row | Structure (SMILES) | TNFα secretion compared to the no-compound control
30 | CCCCCCCCCCCCCC[C@@H](O)[C@@H](O)[C@H](COC1OC(CO)C(O)C(O)C1O)n1cc(CCCCCCN(CCCCCCC)CCCCCCC)nn1 (stereo partly drawn) [DCD-104] | significantly higher levels
